Measured values published in patent USRE30354E, “Novel ethereally monosubstituted monosaccharides” (Strategic Medical Research Corp., priority 1978, dated 1980).
In brackets after ≈: the same amount, converted by molar mass.

Columns and labels:
[1] = light sensitivity; assay type: physicochemical
[2] = tested on: herpes simplex virus; assay: inhibition of herpes simplex virus multiplication in tissue culture (plaque formation technic of Rapp); assay type: cell-based; details: for IC50: read-out: Concentration required to exert 50% inhibition of herpes-induced plaque formation; for IC100: read-out: Concentration required to exert 100% inhibition of herpes-induced plaque formation
[3] = tested on: influenza A2 /Hong Kong; assay: suppression of influenza A2/Hong Kong disease in mice (lung weight); assay type: in vivo; details: 40 mg/Kg orally from 24 h post-infection; 8 days; from lung weights; 50% of drug blocked at 1,2- with acetone
[4] = tested on: influenza A/PR/8; assay: prevention of death in mice with lethal influenza A/PR/8 infection; assay type: in vivo; details: for % of Population Protected / % Mortality: 8 days; for % Mortality: control 95
Method: The above medication was also examined for its capacity to prevent death in mice ill with a lethal influenza A/PR/8 infection. The drug was given subcutaneously at 3 dose levels, once 90 minutes before infection.

[5] = tested on: influenza A2 virus, Hong Kong strain; assay: microbe, parasite or virus in culture; assay type: cell-based
[6] = 10 mg/Kg s.c. once 90 min before infection
[7] = 40 mg/Kg s.c. once 90 min before infection
[8] = 160 mg/Kg s.c. once 90 min before infection

Compound	IC50 [2]	IC100 [2]	other results
3-O-D-glucopropionitrile			light sensitivity [1]: photosensitive
CCN(CC)CCOC1C(C2COC(C)(C)O2)OC2OC(C)(C)OC21 [1,2:5,6-di-O-isopropylidene-3-O-2'-(N',N'-diethylaminoethyl)-D-glucofuranose]	6 µg/mL (≈ 16.7 µM)	30 µg/mL	
CCN(CC)CCO[C@H]1[C@H](O)[C@@H](CO)OC(O)[C@@H]1O (stereo partly drawn) [3-O-2'-(N',N'-diethylaminoethyl)-D-glucopyranose]	2 µg/mL (≈ 7.16 µM)	20 µg/mL	
CC(CN(C)C)O[C@H]1[C@H](O)[C@@H](CO)OC(O)[C@@H]1O (stereo partly drawn) [3-O-2'-(N',N'-dimethylaminopropyl)-D-glucopyranose]			Concentration required to exert 50% inhibition of herpes-induced plaque formation ([2]; herpes simplex, tissue culture): 3 µg/mL; Concentration required to exert 100% inhibition of herpes-induced plaque formation ([2]; herpes simplex, tissue culture): < 20 µg/mL
CC(CO[C@H]1[C@H](O)[C@@H](CO)OC(O)[C@@H]1O)CN(C)C (stereo partly drawn) [3-O-3'-(2',N',N'-trimethylamino-n-propyl)-D-glucopyranose]	2 µg/mL (≈ 7.16 µM)	7 µg/mL	
CN(C)CCCO[C@H]1[C@H](O)[C@@H](CO)OC(O)[C@@H]1O (stereo partly drawn) [3-O-3'-(N',N'-dimethylamino-n-propyl)-D-glucopyranose]	0.3 µg/mL (≈ 1.13 µM)	1 µg/mL	anti-herpes potency ([2]; relative to other derivatives of Table 2): the most potent derivative; % Disease Suppression [3]: 82%; % of Population Protected [4, 6]: 14%; % Mortality [4, 6]: 81%; % of Population Protected [4, 7]: 23%; % Mortality [4, 7]: 72%; % of Population Protected [4, 8]: 50%; % Mortality [4, 8]: 45%; protection against death ([4]; 3 s.c. dose levels, once 90 minutes before infection): significant dose-dependent protection against death; potency of virus-inhibiting effect [5]: the most potent effect
NCCCO[C@H]1[C@H](O)[C@@H](CO)OC(O)[C@@H]1O (stereo partly drawn) [3-O-3'-n-propylamino-D-glucose, 3-O-3'-(n-propylamino)-D-glucopyranose]	3 µg/mL (≈ 12.6 µM)	> 20 µg/mL	
CN1CCC(O[C@H]2[C@H](O)[C@@H](CO)OC(O)[C@@H]2O)CC1 (stereo partly drawn) [3-O-4'-(N-methylpiperidyl)-D-glucose, 3-O-4'-(N-methylpiperidyl)-D-glucopyranose]	0.7 µg/mL (≈ 2.52 µM)	6 µg/mL	
CN(C)CCCOC[C@H]1OC(O)[C@H](O)[C@@H](O)[C@H]1O (stereo partly drawn) [6-O-3'-(N',N'-dimethylamino-n-propyl)-D-galactopyranose]	2 µg/mL (≈ 7.54 µM)	> 10 µg/mL	
CC1(C)OCC(C2OC3OC(C)(C)OC3C2OCCC#N)O1 [di-O-isopropylidene-3-O-3'-propionitrile-D-glucofuranose]			light sensitivity [1]: light sensitive
CC(CN(C)C)O[C@H]1O[C@H](CO)[C@@H](O)[C@H](O)[C@H]1O (stereo partly drawn) [α-N,N-dimethylaminoisopropyl glucoside, α-N,N-dimethylaminoisopropyl-D-glucoside]	10 µg/mL (≈ 37.7 µM)	> 50 µg/mL	log reduction at 3 µg/mL ([5]; 3 μg/ml, 100 TCD50 inoculum, BHK cells, 4.0 is maximum, read-out: Log Decrease in Infectivity of Virus Inoculum): 1.5; log reduction at 10 µg/mL ([5]; 10 μg/ml, 100 TCD50 inoculum, BHK cells, 4.0 is maximum (complete suppression), read-out: Log Decrease in Infectivity of Virus Inoculum): 2.5
